Molecular target: T1, yeast's α-glucosidase
T1 construct: gene MAL12; yeast enzyme
Test: colorimetric α-glucosidase inhibition assay
Type: biochemical, Saccharomyces cerevisiae
Conditions: standard drug; substrate and buffer only in supplement
Source text: colorimetric α-glucosidase inhibition assay on yeast's α-glucosidase

- Enzyme Inhibition IC50: 160.15 ± 27.52 µg/mL
Compound: C[C@H]1O[C@H](O[C@H]2[C@H](O)[C@@H](O)[C@@H](O[C@H]3[C@H](O)[C@@H](O)C(O)O[C@@H]3CO)O[C@@H]2CO)[C@H](O)[C@@H](O)[C@@H]1N[C@H]1C=C(CO)[C@@H](O)[C@H](O)[C@H]1O (stereo partly shown) [Acarbose]

Reference: publication PMC10728852, “In Vitro and In Vivo Antidiabetic, α-Glucosidase Inhibition and Antibacterial Activities of Three Brown Algae, Polycladia myrica, Padina antillarum, and Sargassum boveanum, and a Red Alga, Palisada perforata from the Persian Gulf” (Iranian Journal of Pharmaceutical Research : IJPR, 2023)
